Entries after “also recorded” stand apart in the source; their conditions may differ. Like-named read-outs stand apart in the source and are kept apart here.
How the values were obtained:
preclinical tumor models = conditions: cited from earlier work
Tumor = conditions: cited from earlier work; for Toxicity: * dose limiting toxicity
[1] = cited from earlier work
human tumors = conditions: nude mice xenografts; cited from earlier work
[2] = cited from earlier work; remark: listed apart in the source
[3] = system: Topoisomerase I purified from human colon carcinoma cells or calf thymus; conditions: cited from earlier work
Colon cancer = conditions: 100 mg/m^2/week or 150 mg/m^2/Q 2 wks; cited from earlier work
Small Cell Lung Cancer = conditions: 100 mg/m^2/week; cited from earlier work
[4] = cited from earlier work; for sporadic toxicities: relative to parent compound
Leukemia/Lymphoma = conditions: cited from earlier work
Cervical cancer = conditions: 100 mg/m^2 weekly, 150 mg/m^2 weeks; cited from earlier work
[5] = cited from earlier work; remark: listed apart in the source
[6] = system: Refractory or Relapsed Small Cell Lung Ca; conditions: 100 mg/m^2 weekly; cited from earlier work
[7] = system: Untreated Non Small Cell Lung Cancer; conditions: 100 mg/m^2 weekday; cited from earlier work
[8] = Fractional amounts of lactone species of CPT-11 and HECPT (Rothenburg et al.); type: in vivo, human; conditions: Table 4
Source text: Fractional Amounts of Lactone Species of CPT-11 and HECPT as
Function of Increasing Single Dose LV. From Rothenburg et al.

L1210 leukemia = conditions: 10-100 mg/kg intraperitoneally; cited from earlier work
[9] = cited from earlier work; remark: listed apart in the source
topoisomerase I [10] = conditions: cited from earlier work
[11] = after CPT-11 versus HECPT administration; cited from earlier work
topoisomerase I [12] = conditions: P388 cells; cited from earlier work
[13] = Pharmacokinetics of CPT-11 and HECPT, 5-day continuous infusion of CPT-11 (Ohe et al.); type: in vivo, human; conditions: e.g., above 30 mg/m^2/d
Source text: Initially, patients may be treated in a dose escalation protocol to determine the maximal tolerated dose of the ECPT formulation. […] For the purpose of this invention, "AUC" is defined as "area under the curve" and "CpMax" is defined as "the maximum plasma concentrate at the end of I.V.

P388 tumor = conditions: intermittent bolus days 1, 5, 9, i.p.; cited from earlier work
DNA single-strand breaks = conditions: cells exposed to HECPT; cited from earlier work
MOLT3 cells = conditions: cited from earlier work
[14] = U.S. Pat. No. 4,713,246; cited from earlier work
[15] = mice; cited from earlier work
[16] = Phase II; cited from earlier work
[17] = first Rothenberg line, no dose given

CC[C@@]1(O)C(=O)OCc2c1cc1n(c2=O)Cc2cc3cc4c(cc3nc2-1)OCO4 [10,11 methylene dioxycamptothecin, 10,11 methylenedioxy camptothecin]
antitumor activity in preclinical studies (preclinical tumor models): very active

CCc1c2c(nc3ccc(OC(=O)N4CCC(N5CCCCC5)CC4)cc13)-c1cc3c(c(=O)n1C2)COC(=O)[C@]3(O)CC [CPT-11, 7-Ethyl-10-[4-(1-piperidino)-1-piperidino]Carbonyloxy-Camptothecin]
Toxicity (Tumor; Clavel et al, 90 min. QDx3 Q21 days, 115 mg/m^2/d (33-115)): Neutropenia* diarrhea; also recorded: nausea and vomiting; also recorded: alopecia
Tumor Type (responses) (Tumor; Clavel et al, Breast): 1 PR
Tumor Type (responses) (Tumor; Clavel et al, Mesothelioma): 1 PR
Toxicity (Tumor; Culine et al, 90 min. Q21 days, 150 mg/m^2/wk (50-150)): Neutropenia* diarrhea*; also recorded: vomiting, alopecia; also recorded: fatigue stomatitis
Tumor Type (responses) (Tumor; Culine et al, cervix): 1 PR
Tumor Type (responses) (Tumor; Culine et al, esophagus): 1 PR
Tumor Type (responses) (Tumor; Culine et al, ovarian): 1 PR
Tumor Type (responses) (Tumor; Culine et al, renal): 1 PR
Toxicity (Tumor; Negoro et al, 30 min infusion, 100 mg/m^2 (50-150)): Diarrhea*, N/V
Tumor Type (responses) (Tumor; Negoro et al, NS CLC): 2 PRs
Tumor Type (responses) (Tumor; Ohe et al, 120 hr CI): None
Toxicity (Tumor; Rothenberg et al, 90 mg QWx4 Q42 days, 180 mg/m^2/wk (50-180)): Neutropenia, nausea; also recorded: vomiting, alopecia
Tumor Type (responses) (Tumor; Rothenberg et al, Colon Ca): 2 PRs
Toxicity (Tumor; Rowinsky et al, 90 min infusion Q21 day, 240 mg/m^2 (100-345)): Neutropenia* vomiting; also recorded: diarrhea abd. pain; also recorded: flushing
Tumor Type (responses) (Tumor; Rowinsky et al, Cervix Ca): 1 PR
Tumor Type (responses) (Tumor; Rowinsky et al, Colon Ca): 1 PR
AUC ([1]; CPT-11 50 mg/m^2/wkx4): 2970 ng·h/mL
CpMax ([1]; CPT-11 50 mg/m^2/wkx4): 1.70 µg/mL
AUC ([1]; CPT-11 100 mg/m^2/wkx4): 2230 ng·h/mL
CpMax ([1]; CPT-11 100 mg/m^2/wkx4): 1.29 µg/mL
AUC ([1]; CPT-11 150 mg/m^2/wk X4): 2810 ng·h/mL
CpMax ([1]; CPT-11 150 mg/m^2/wk X4): 1.56 µg/mL
AUC ([1]; CPT-11 180 mg/m^2/wk X4): 3830 ng·h/mL
CpMax ([1]; CPT-11 180 mg/m^2/wk X4): 1.97 µg/mL
AUC [1, 17]: 1130 ng·h/mL
CpMax [1, 17]: 0.89 µg/mL
sensitivity of human tumors in relation to ability to produce HECPT (human tumors): independent of their ability to produce HECPT
interpatient variability in AUC and metabolism to HECPT ([2]; 5-day continuous intravenous infusion): large range of interpatient variability
inhibition of purified topoisomerase I [3]: inhibited
Reported Toxicities: NN (Colon cancer): 35%
Reported Toxicities: Neutropenia (Colon cancer): 53%
Reported Toxicities: diarrhea (Colon cancer): 24%
Response (PR) (Colon cancer): 6/17
Response Rate (Colon cancer): 46%
Reported Toxicities: N/V (Small Cell Lung Cancer): 61.5%
Reported Toxicities: alopecia (Small Cell Lung Cancer): 40.0%
Reported Toxicities: diarrhea (Small Cell Lung Cancer): 53.8%
Response: CRs (Small Cell Lung Cancer): 2 CRs
Response: PRs (Small Cell Lung Cancer): 7 PRs
sporadic toxicities [4]: less sporadic toxicities
Response Rate (RR) (Leukemia/Lymphoma; 20 mg/m^2 bid x7): 25%
Response Rate (PR) (Leukemia/Lymphoma; 40 mg/m^2 Q0x5): 34%
Response Rate (Leukemia/Lymphoma; 200 mg Q3): No resp.
Reported Toxicities: Gastrointestinal (Leukemia/Lymphoma; in vivo): 76%
Reported Toxicities: Neutropenia (Leukemia/Lymphoma; in vivo): 91%
Reported Toxicities (Leukemia/Lymphoma; incidence not given): Thrombocytopenia
Reported Toxicities: N/V (Cervical cancer): 51%
Reported Toxicities: Neutropenia (Cervical cancer): 89%
Reported Toxicities: alopecia (Cervical cancer): 38.1%
Reported Toxicities: diarrhea (Cervical cancer): 39.1%
Response (complete responses) (Cervical cancer): SCR
Response: PR (Cervical cancer): 8 PR
Fractional amount of lactone species, CpMax Based ([5]; single dose I.V. CPT-11 50 mg/m^2): 0.51
Fractional amount of lactone species, CpMax Based ([5]; single dose I.V. CPT-11 80 mg/m^2): 0.44
Fractional amount of lactone species, CpMax Based ([5]; single dose I.V. CPT-11 100 mg/m^2): 0.53
Fractional amount of lactone species, CpMax Based ([5]; single dose I.V. CPT-11 125 mg/m^2): 0.55
Fractional amount of lactone species, CpMax Based ([5]; single dose I.V. CPT-11 150 mg/m^2): 0.42
Fractional amount of lactone species, CpMax Based ([5]; single dose I.V. CPT-11 180 mg/m^2): 0.42
Reported Toxicities [6]: Neutropenia, diarrhea
Reported Toxicities: pneumonitis [6]: 12.5%
Response (PRs) [6]: 7/15
Response Rate [6]: 47%
Reported Toxicities [7]: anorexia, alopecia; also recorded: Neutropenia diarrhea; also recorded: nausea, vomiting
Response (PRs) [7]: 23/72
Response Rate [7]: 31.9%
overall fractional concentration of the lactone species through a range of doses [8]: fairly constant

CCc1c2c(nc3ccccc13)-c1cc3c(c(=O)n1C2)COC(=O)C3(O)CC (stereo not drawn) [ECPT, 7-ethyl camptothecin]
results relative to CPT-11 under the same conditions (L1210 leukemia): inferior
solubility in water [9]: insufficiently water soluble for clinical use
antitumor activity in preclinical studies (preclinical tumor models): broad anticancer activity
inhibition of Topoisomerase I (topoisomerase I [10]): potent inhibitor

CCc1c2c(nc3ccc(O)cc13)-c1cc3c(c(=O)n1C2)COC(=O)[C@]3(O)CC [HECPT, 10-hydroxy 7-ethyl camptothecin]
plasma concentration of HECPT in mice [11]: maintained longer after CPT-11 administration than after treatment with HECPT
inhibitory activity against topoisomerase I relative to CPT-11 (topoisomerase I [12]): 3600 fold
AUC ([1]; CPT-11 50 mg/m^2/wkx4): 195.5 ng·h/mL
CpMax ([1]; CPT-11 50 mg/m^2/wkx4): 0.0393 µg/mL
AUC ([1]; CPT-11 100 mg/m^2/wkx4): 214.8 ng·h/mL
CpMax ([1]; CPT-11 100 mg/m^2/wkx4): 0.0316 µg/mL
AUC ([1]; CPT-11 150 mg/m^2/wk X4): 123.2 ng·h/mL
CpMax ([1]; CPT-11 150 mg/m^2/wk X4): 0.0367 µg/mL
AUC ([1]; CPT-11 180 mg/m^2/wk X4): 232.8 ng·h/mL
CpMax ([1]; CPT-11 180 mg/m^2/wk X4): 0.0262 µg/mL
AUC [1, 17]: 62.2 ng·h/mL
results relative to CPT-11 under the same conditions (L1210 leukemia): inferior
AUC ([2]; CPT-11 25 mg/m^2/dx5): 1080 ng·h/mL
CpMax ([2]; CPT-11 25 mg/m^2/dx5): 0.0104 µg/mL
AUC ([2]; CPT-11 30 mg/m^2/dx5): 960 ng·h/mL
AUC ([2]; CPT-11 35 mg/m^2/dx5): 910 ng·h/mL
CpMax ([2]; CPT-11 35 mg/m^2/dx5): 0.0068 µg/mL
AUC ([2]; CPT-11 40 mg/m^2/dx5): 860 ng·h/mL
CpMax ([2]; CPT-11 40 mg/m^2/dx5): 0.0080 µg/mL
toxicity of HECPT relative to CPT-11 (suggested) ([2]; Ohe et al.): more toxic moiety
correlation between HECPT pharmacokinetics and dose or CPT-11 pharmacokinetics and toxicity ([2]; human subjects): lack of correlation
inhibition of purified topoisomerase I [3]: inhibited
CpMax of HECPT with increases in dose of CPT-11 [13]: decrease
anti-tumor activity compared to CPT-11 in vivo (P388 tumor): little anti-tumor activity
greatest quantitative biochemical effect (DNA single-strand breaks): DNA single-strand breaks that occur during the S-phase
potency in generating single-strand DNA breaks relative to CPT-11 (MOLT3 cells): approximately 1000 fold
overall fractional concentration of the lactone species through a range of doses [8]: fairly constant
reversibility of cleavable complex stabilization (topoisomerase I [10]): readily reversible

COc1cc([C@@H]2c3cc4c(cc3[C@@H](O[C@@H]3O[C@@H]5CO[C@@H](C)O[C@H]5[C@H](O)[C@H]3O)[C@H]3COC(=O)[C@H]23)OCO4)cc(OC)c1O [etoposide]
bioavailability following oral administration versus intravenous [14]: substantially equivalent

CC[C@@]1(O)C(=O)OCc2c1cc1n(c2=O)Cc2cc3ccccc3nc2-1 [lactone form of camptothecin]
toxicity relative to sodium camptothecin [15]: 10 fold
antitumor activity in preclinical studies (preclinical tumor models): significant antitumor activity

CCC(O)(C(=O)O)c1cc2n(c(=O)c1CO)Cc1cc3ccccc3nc1-2 (stereo not drawn) [sodium camptothecin]
toxicity in Phase II studies [16]: unpredictable and severe myelosuppression, gastrointestinal toxicity, hemorrhagic cystitis, and alopecia

CC[C@@]1(O)C(=O)OCc2c1cc1n(c2=O)Cc2cc3c(CN(C)C)c(O)ccc3nc2-1 [topotecan]
activity relative to parent compound ([4]; human, in vivo): retain significant activity of the parent compound
sporadic toxicities [4]: less sporadic toxicities

Source: patent US5604233A, “Lactone stable formulation of 7-ethyl camptothecin and methods for uses thereof” (priority 1994, dated 1997)
